Assay results taken from US8871758B2, “Tetrasubstituted oxathiazine derivatives, method for producing them, their use as medicine and drug containing said derivatives and the use thereof” (Sanofi, priority 2011, dated 2014).

Biological target: T1, human 11β-HSD1 (Homo sapiens, UniProt P28845)
T1 construct: host or cells: microsome fraction
Test: Enzymatic 11beta-HSD1 test (SPA-based detection)
Type: biochemical
Conditions: human 11β-HSD1 microsome fraction, [1,2-3H]-cortisone substrate, NADPH, 37° C. 1 hour, read-out: IC50 (nM), Biological activity in nanomolar
Experimental: Enzymatic 11beta-HSD1 Test:
First of all, 20 μl of the human 11β-HSD1 microsome fraction (0.2 μg of protein), prepared in 50 mM HEPES, 0.1% BSA (w/v), were applied to a plate with 384 wells. The test compounds (0.09 μl) were applied to the assay plate in 100% DMSO. The reaction was started by addition of 20 μl of [1,2-^3H]-cortisone (0.1 μCi/[…]) in assay buffer comprising 25 mM HEPES, 100 mM KCl, 5 mM NaCl, 2 mM MgCl2 and 0.25 mM NADPH. The plate was agitated at 37° C. for 1 hour. At the same time, a stop solution comprising 20 mg/ml SPA-PVT beads, 1.6 mg/ml monoclonal cortisol antibody and 0.01 mM SSR110887 (inhibitor from the Biovitrium patent) in 50 mM HEPES, 1 M NaCl and 1 M KCl was stirred at room temperature. To stop the reaction, 25 μl of the stop solution were added to each well. The plate was agitated gently at room temperature for 1 further hour and then centrifuged at 500 gav for 1 min, in order that the SPA beads could settle out. […] The comparative compound was glycyrrhetinic acid.
Protein and radioactive substrate were dispensed with a Biomek FX unit (Beckman Coulter) for handling liquids. The test compounds were added with a Cybi-Well equipped with a 90 n1 pin tool (CyBio).
Lit.: Solly S, Mundt S S, Zokian H J, Juy-Fang Ding G, Hermanowski-Vosatka A, Strulovici B and Zheng W. High-throughput screening of 11β-Hydroxysteroid dehydrogenase type 1 in scintillation proximity format.

T1 sequence (P28845 whole entry): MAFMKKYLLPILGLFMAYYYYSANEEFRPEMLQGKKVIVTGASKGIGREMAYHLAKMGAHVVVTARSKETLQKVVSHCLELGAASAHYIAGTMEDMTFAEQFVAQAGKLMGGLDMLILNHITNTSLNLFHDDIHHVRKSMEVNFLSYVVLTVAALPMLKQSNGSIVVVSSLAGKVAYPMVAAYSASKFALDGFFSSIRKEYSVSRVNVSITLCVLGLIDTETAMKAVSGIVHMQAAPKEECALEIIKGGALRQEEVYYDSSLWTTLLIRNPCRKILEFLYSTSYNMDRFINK

Q: With `CC1(C)OC(N[C@@H]2CCC[C@@H](O)C2)=NS(=O)(=O)C1(C)C` [Example 25, (1R,3R)-3-(5,5,6,6-Tetramethyl-4,4-dioxo-5,6-dihydro-4H-4lambda6-[1,4,3]oxathiazin-2-ylamino)-cyclohexanol] as the molecule, how does the IC50 read?
A: 289 nM

Q: `CC(C)(O)C[C@H](NC1=NS(=O)(=O)C(C)(C)C(C)(C)O1)c1cccnc1` [Example 16, (S)-2-Methyl-4-pyridin-3-yl-4-(5,5,6,6-tetramethyl-4,4-dioxo-5,6-dihydro-4H-4lambda6-[1,4,3]oxathiazin-2-ylamino)-butan-2-ol] was tested. Which IC50 did it give?
A: 586 nM

Q: Which IC50 does the source give for `CC1(C)OC(NC23CCC(F)(CC2)CC3)=NS(=O)(=O)C1(C)C` [Example 9, (4-Fluoro-bicyclo[2.2.2]oct-1-yl)-(5,5,6,6-tetramethyl-4,4-dioxo-5,6-dihydro-4H-4lambda6-[1,4,3]oxathiazin-2-yl)-amine] here?
A: 4 nM

Q: For `C[C@H](NC1=NS(=O)(=O)C(C)(C)C(C)(C)O1)c1ccccc1F` [Example 21, [(S)-1-(2-Fluoro-phenyl)-ethyl]-(5,5,6,6-tetramethyl-4,4-dioxo-5,6-dihydro-4H-4lambda6-[1,4,3]oxathiazin-2-yl)-amine], which IC50 is on record?
A: 5 nM

Q: How did the IC50 turn out when `CC1(C(F)(F)F)OC(NC2CCCCC2)=NS(=O)(=O)C12CC2` (stereo not shown) [Example 13, Cyclohexyl-(8-methyl-4,4-dioxo-8-trifluoromethyl-7-oxa-4lambda6-thia-5-aza-spiro[2.5]oct-5-en-6-yl)-amine] was run?
A: 19 nM

Q: How did the IC50 turn out when `CC1(C)OC(N[C@H]2CCC[C@H](O)C2)=NS(=O)(=O)C1(C)C` [Example 18, (1S,3S)-3-(5,5,6,6-Tetramethyl-4,4-dioxo-5,6-dihydro-4H-4lambda6-[1,4,3]oxathiazin-2-ylamino)-cyclohexanol] was run?
A: 560 nM

Q: Which IC50 does the source give for `CC1(C)OC(NC23CCC(F)(CC2)CC3)=NS(=O)(=O)C12CC2` [Example 8, (8,8-Dimethyl-4,4-dioxo-7-oxa-4lambda6-thia-5-aza-spiro[2.5]oct-5-en-6-yl)-(4-fluoro-bicyclo[2.2.2]oct-1-yl)-amine] here?
A: 22 nM

Q: `CC1(COCc2ccccc2)OC(NC2CCCCC2)=NS(=O)(=O)C12CC2` (stereo not shown) [Example 6, (8-Benzyloxymethyl-8-methyl-4,4-dioxo-7-oxa-4lambda6-thia-5-aza-spiro[2.5]oct-5-en-6-yl)-cyclohexyl-amine] was tested. Which IC50 did it give?
A: 73 nM

Q: `CC1(C)OC(NC23CCC(CC2)CC3)=NS(=O)(=O)C1(C)C` [Example 15, Bicyclo[2.2.2]oct-1-yl-(5,5,6,6-tetramethyl-4,4-dioxo-5,6-dihydro-4H-4lambda6-[1,4,3]oxathiazin-2-yl)-amine] was tested. Which IC50 did it give?
A: 4 nM

Q: Which IC50 does the source give for `CC1(C)OC(N[C@@H](CCO)c2ccccc2)=NS(=O)(=O)C12CC2` [Example 5, (S)-3-(8,8-Dimethyl-4,4-dioxo-7-oxa-4lambda6-thia-5-aza-spiro[2.5]oct-5-en-6-ylamino)-3-phenyl-propan-1-ol] here?
A: 37 nM

Q: With `COCC1(C)OC(NC2CCCCC2)=NS(=O)(=O)C12CC2` (stereo not shown) [Example 4, Cyclohexyl-(8-methoxymethyl-8-methyl-4,4-dioxo-7-oxa-4lambda6-thia-5-aza-spiro[2.5]oct-5-en-6-yl)-amine] as the molecule, how does the IC50 read?
A: 462 nM

Q: Which IC50 does the source give for `CC1(C)OC(N[C@@H](CS(N)(=O)=O)c2ccc(F)cc2)=NS(=O)(=O)C1(C)C` (single isomer, unassigned) [Example 14] here?
A: 10 nM

Q: With `CC1(CO)OC(NC2CCCCC2)=NS(=O)(=O)C12CC2` (stereo not shown) [Example 7, (6-Cyclohexylamino-8-methyl-4,4-dioxo-7-oxa-4lambda6-thia-5-aza-spiro[2.5]oct-5-en-8-yl)-methanol] as the molecule, how does the IC50 read?
A: 786 nM
